Read-outs that look alike come from different tables or passages of the source. Some results are limits rather than exact numbers.

One series relates to MCF-7. The series is described as follows: MTS cell proliferation assay, MCF-7. It counts as cell-based, human. In short, it runs like this: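 MCF-7 human breast cancer cells were exposed to test compounds at a range of concentrations, then proliferation was measured with the MTS reagent from Promega's CellTiter 96 AQueous Non-Radioactive Cell Proliferation Assay kit. After 1 hr at 37° C., OD at 550 nm was read on a 96-well iMark Microplate Absorbance Reader, with quadruplicate wells per concentration.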
In general terms: Tetrazolium dyes change colour on reduction, which living cells bring about.

The subject of the next series is MDA-MB-231. The series is described as follows: MTS cell proliferation assay, MDA-MB-231. It counts as cell-based, human. In short, it runs like this:
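Cells are exposed to DMSO or STAT3 inhibitors at 0.01-100 μM for 72 h, or at 1, 5 and 10 μM. Proliferation is read by MTS absorbance at 550 or 560 nm after 1 h at 37 °C. Each concentration is run in quadruplicate wells.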

Series [1] relates to MCF-7, MDA-MB-231, AsPC1 and Panc-1. The series is described as follows: MTS proliferation assays, breast and pancreatic cancer cell line panel. It counts as cell-based, human. Particulars: Example 4 numbering. As to the method:
(§1) In Vitro Determination of Effects of Synthesized Compounds on Cancer Cell Proliferation. Cancer cells (breast cancer cell lines MCF-7 and MDA-MB-231, pancreatic cancer cell lines AsPC-1 and Panc-1) were seeded in 96-well plates at a density of 2×10^3 cells/well and treated with DMSO, 0.01, 0.1, 1, 5, 10, and 100 μM of individual STAT3 inhibitors for 72 h. Proliferation was measured by treating cells with the 3-(4,5-dimethylthiazol-2-yl)-5-(3-carboxymethoxyphenyl)-2-(4-sulfophenyl)-2H-tetrazolium) (MTS) in a CellTiter 96t Aqueous Non-Radioactive Cell Proliferation Assay kit (Promega, Madison, Wis., USA). Absorbance of all wells was determined by measuring OD at 550 nm after 1 h incubation at 37° C. on a 96-well iMark™ Microplate Absorbance Reader (BioRad, Hercules, Calif.). Each individual compound was tested in quadruplicate wells for each concentration.

The next series has as its system AsPC1. The series is described as follows: MTS cell proliferation assay, AsPC1. The class given is cell-based, human. As to the method: (§2) Cancer cells (breast cancer cell lines MCF-7, MDA-MB-361, SKBR3 and MDA-MB-231, pancreatic cancer cell lines AsPC-1. BxPC3 and Panc-1) were seeded in 96-well plates at a density of 1000-2000 cells/well and treated with DMSO, 0.01, 0.1, 1, 5, 10, and […] of STAT3 individual inhibitors for 72 hrs. Proliferation was measured by treating cells with the 3-(4,5-dimethylthiazol-2-yl)-5-(3-carboxymethoxyphenyl)-2-(4-sulfophenyl)-2H-tetrazolium) (MTS) in a CellTiter 96t AQueous Non-Radioactive Cell Proliferation Assay kit from Promega, Madison, Wis., USA). Absorbance of all wells was determined by measuring OD at 550 nm after 1 hr incubation at 37° C. on a 96-well iMark™ Microplate Absorbance Reader (BioRad, Hercules, Calif.). Each individual compound was tested in quadruplicate wells for each concentration, and the results were reported as mean absorption±s.e.
as §1

For the next series, the system named is Panc-1. The series is described as follows: MTS cell proliferation assay, Panc-1. It counts as cell-based, human. As to the method: as §2, §1
The test system of series [2] is STAT3 promoter activity in MDA-MB-231 cells. The series is described as follows: Transient transfection and dual luciferase reporter assay (pSTAT3-Luc). Particulars: Homo sapiens, MDA-MB-231, read-out: inhibition of STAT3 promoter activity at 5 μM; 24 h, compared with control; Example 4 numbering. It counts as cell-based, human. As to the method:
MDA-MB-231 cells were pre-treated with niclosamide or 11 at different concentrations for 24 h. The STAT3 promoter activity in MDA-MB-231 cells was determined after transient transfecting with pSTAT3-Luc vector.
Transient Transfection and Dual Luciferase Reporter Assays. MBA-MB-231 cells were seeded in 24-well plate at a density of 5×10^4 cells/well in RPMI-1640 medium containing 10% FBS and 1% penicillin-streptomycin. Transient transfections were performed 4 h after plating, using the method described previously (Rees, D. C. et al., 2004; Shen, Q. et al., 2008). Total amount of DNA for transfections was 0.5 μg/well, including pSTAT3-Luc (95%, obtained from Panomics, Cat# LR0077) and internal control vector renilla (5%, from Promega, Madison, Wis., USA). 5 h after transfection, the cells were treated with compound […] for 24 h, then reporter activity was evaluated using dual luciferase reporter assay kit (Promega, Madison, Wis., USA) on an Omega™ Microplate Luminometer (BMG LABTECH Inc., NC, USA). Relative luciferase units were the ratio of the absolute activity of firefly luciferase to that of renilla luciferase. Experiments were conducted with triplicates and results are representatives of at least 3 independent experiments.
In general terms: In a reporter assay the amount or activity of a reporter protein is the signal.

The format of series [3] is in vivo. The conditions noted are these: mouse, in vivo, 150 mg/kg.
Description: Female nude mice at 4 to 6 wk of age were obtained from MDACC ERO facility. The mice were maintained in a barrier unit with 12 hours light-dark switch room and all materials were autoclaved. Freshly harvested MDA-MB-231 cells (2.5×10^6 cells per mouse, resuspended in 100 μl PBS) were injected into the 3rd mammary fat pad of the mice, and then mice were randomly assigned into control and treatment groups (≧6 mice per group). Treatment started when the xenograft mammary tumors reaches a volume of 200 mm^3. […] Mice were monitored daily for general health conditions (body weight, fur coat condition and posture) and toxicity (hair loss, skin rash, abdominal distension). […] Tumor volume was calculated as V=W^2×L/2, where L=longer diameter (mm) and W=width of short diameter (mm). […]
Female nude mice were obtained from MDACC and were used for orthotopic tumor studies at 4 to 6 weeks of age. […] Body weights and tumors volume were measured daily and tumor volume was calculated according to the formula V=0.5×L×W^2, where L=length (mm) and W=width (mm).
Twenty-two female nude mice (8 wks of age) were obtained from MDACC ERC Center. […] Body weights and tumors volume were measured daily and tumor volume calculated using the formula V=0.5×L×W^2, where L=length (mm) and W=width (mm) of xenograft tumors. Signs of toxicity were recorded individually. […]
The test system of another series is MDA-MB-361. The series is described as follows: MTS cell proliferation assay, MDA-MB-361. It counts as cell-based. Particulars: Homo sapiens, ER-positive breast cancer, 72 hrs, >10 = no effect, read-out: IC50 MDA-MB-361 (Table 1). Here is the method: as §2
The next series concerns BxPc-3H. The series is described as follows: MTS cell proliferation assay, BxPc-3H. The class given is cell-based. The conditions noted are these: Homo sapiens; pancreatic cancer, 72 hrs; >10 = no effect; read-out: IC50 BxPc-3H (Table 1). As to the method:
as §2

For series [4], the system named is MDA-MB-231 xenograft tumors. The series is described as follows: MDA-MB-231 xenograft tumor growth in nude mice. The class given is in vivo. The conditions noted are these: i.p., 2.5, 7.5 and 12.5 mg/kg.
[5] abbreviates: Homo sapiens, MCF7, Example 4 numbering, 72 h, >10 = no effect, read-out: IC50 MCF-7 (Table 5).
Where [6] appears, read: Homo sapiens, MDA-MB-231, Example 4 numbering, 72 h, >10 = no effect, read-out: IC50 MDA-MB-231 (Table 5).

Take `O=C(Nc1ccc2c(c1)S(=O)(=O)C=C2)c1ccncc1` [Compound 21, N-(1,1-Dioxo-1H-1λ^6-benzo[b]thiophen-6-yl)isonicotinamide]: the melting point fell in the range of 251 to 252 °C. In the series on MCF-7 (setting [5]), the IC50 is greater than 10 µM. In the series with MDA-MB-231 (setting [6]), the IC50 was greater than 10 µM. In series [1], the “antiproliferative activity in words (Example 4)” value (“antiproliferative activity” for short) is listed as “moderate to low antiproliferative activity”.
In the case of `O=C(Nc1ccc2c(c1)S(=O)(=O)C=C2)c1cc(-c2ccccc2)nc2ccccc12` [Compound 5], the IC50 with MCF-7 (Homo sapiens, MCF7, 72 h, read-out: IC50 MCF-7 (Table 4)) turned out to be 0.1 µM; in the series on MCF-7 (Homo sapiens, MCF7, 72 h, read-out: IC50 MCF-7 (Table 5)), 0.1 µM; with MDA-MB-231 (Homo sapiens, MDA-MB-231, 72 h, read-out: IC50 MDA-MB-231 (Table 4)), 0.29 µM; with MDA-MB-231 (Homo sapiens, MDA-MB-231, 72 h, read-out: IC50 MDA-MB-231 (Table 5)), 0.29 µM; with AsPC1 (Homo sapiens, ASPC1, 72 h, read-out: IC50 AsPC1 (Table 4)), 1.25 µM; in the series with AsPC1 (Homo sapiens, ASPC1, 72 h, read-out: IC50 AsPC1 (Table 5)) it was 1.25 µM. In addition, the IC50 in the series on Panc-1 (Homo sapiens, PANC-1, 72 h, read-out: IC50 Panc-1 (Table 4)) was 0.26 µM; with Panc-1 (Homo sapiens, PANC-1, 72 h, read-out: IC50 Panc-1 (Table 5)), 0.26 µM. Also, the inhibition at 5 µM in series [2] is roughly 65%. For the same compound, the “signs of toxicity at 150 mg/kg” value in series [3] is given as “did not show significant signs of toxicity”.
`NCCOc1ccc(Cl)cc1C(=O)Nc1ccc([N+](=O)[O-])cc1Cl` [HJC-1-52, 2-(2-Aminoethoxy)-5-chloro-N-(2-chloro-4-nitrophenyl)benzamide]: the IC50 in the series on MCF-7 (Homo sapiens, MCF7, 72 h, read-out: IC50 MCF-7 (Table 1)) came to 0.91 µM; in the series with MDA-MB-361, 2.37 µM; with MDA-MB-231 (Homo sapiens, MDA-MB-231, ER-negative breast cancer, 72 hrs, >10 = no effect, read-out: IC50 MDA-MB-231 (Table 1)), 1.64 µM; in the series with AsPC1 (Homo sapiens, ASPC1, pancreatic cancer, 72 hrs, >10 = no effect, read-out: IC50 AsPC1 (Table 1)), 1.9 µM; with BxPc-3H it was 1.07 µM; in the series on Panc-1 (Homo sapiens, PANC-1, pancreatic cancer, 72 hrs, >10 = no effect, read-out: IC50 Panc-1 (Table 1)), 1.08 µM. For the same compound, the “inhibition on breast cancer cell proliferation (FIG. 1)” value in the series with MCF-7 (MCF-7, 48 hr, μM concentrations) is reported as “significant inhibition”. Besides, the “growth of xenograft tumors (FIG. 3)” value in series [4] is reported as “significantly suppresses tumor growth”.
Turning to “Quinoline-3-carboxylic acid (1,1-dioxo-1H-1λ^6-benzo[b]thiophen-6-yl)amide [Compound 23]”, the IC50 amounted to 2.97 µM in the series on MCF-7 (Example 4 numbering, 72 h, >10 = no effect, read-out: IC50 MCF-7 (Table 5)); 6.21 µM with MDA-MB-231 (Example 4 numbering, 72 h, >10 = no effect, read-out: IC50 MDA-MB-231 (Table 5)); 6.97 µM in the series with AsPC1 (Example 4 numbering, 72 h, >10 = no effect, read-out: IC50 AsPC1 (Table 5)); 7.92 µM in the series with Panc-1 (Example 4 numbering, 72 h, >10 = no effect, read-out: IC50 Panc-1 (Table 5)). Further, the “antiproliferative activity” value in series [1] is “moderate to low antiproliferative activity”.
On to `O=C(Nc1ccc2c(c1)S(=O)(=O)C=C2)c1ccnc(-c2ccccc2)c1` [Compound 22, N-(1,1-Dioxo-1H-1λ^6-benzo[b]thiophen-6-yl)-2-phenyl-isonicotinamide], for which the melting point is 285 to 286 °C. Besides, the IC50 in the series with MCF-7 (setting [5]) turned out to be 3.78 µM. Also, in the series on MDA-MB-231 (setting [6]), the IC50 came to 1.85 µM. Further, the IC50 in the series on AsPC1 (Homo sapiens, ASPC1, Example 4 numbering, 72 h, >10 = no effect, read-out: IC50 AsPC1 (Table 5)) stood at 1.3 µM. Besides, in the series on Panc-1 (Homo sapiens, PANC-1, Example 4 numbering, 72 h, >10 = no effect, read-out: IC50 Panc-1 (Table 5)), the IC50 is 3.35 µM. The “antiproliferative activity” value in [1] is given as “low micromolar IC50 values”.

Usually IC50 stands for the concentration needed to halve the response being measured. A word on the melting point: it is the temperature of the solid-liquid transition. As usually defined, the inhibition is the drop in the measured response relative to a control, in per cent.
